In patent US20090270394A1, “CYCLYLAMINE DERIVATIVES AS CALCIUM CHANNEL BLOCKERS” (priority 2008, published 2009) one finds inhibition and IC50 data, which are given here for 20 compounds.

The target in the assay is T1, Human Cav2.2 channels (Homo sapiens, UniProt Q00975).
T1 construct: expressed in transfected cells
As to the kind of experiment: Fluorescent assay for Cav2.2 channels using potassium depolarization to initiate channel opening. It is filed as cell-based. The note with it: for inhibition at 10 µM: 10 μM compound, read-out: Cav 2.2 Activity % Inh at 10 μM; for IC50: 30 mM K (block of open and inactivated channels), read-out: Cav 2.2 Activity IC50 at 30 mM K; for inhibition at 30 µM: 30 μM compound, read-out: Cav 2.2 Activity % Inh at 30 μM. In a few lines: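 HEK293 cells stably expressing human Cav2.2 with alpha2-delta and beta subunits plus Kir2.3, dye-loaded, then held 30 min at 25° C. in 4, 12, 25 or 30 mM K+ pre-polarization buffer with compound.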

T1 sequence (Q00975 whole entry): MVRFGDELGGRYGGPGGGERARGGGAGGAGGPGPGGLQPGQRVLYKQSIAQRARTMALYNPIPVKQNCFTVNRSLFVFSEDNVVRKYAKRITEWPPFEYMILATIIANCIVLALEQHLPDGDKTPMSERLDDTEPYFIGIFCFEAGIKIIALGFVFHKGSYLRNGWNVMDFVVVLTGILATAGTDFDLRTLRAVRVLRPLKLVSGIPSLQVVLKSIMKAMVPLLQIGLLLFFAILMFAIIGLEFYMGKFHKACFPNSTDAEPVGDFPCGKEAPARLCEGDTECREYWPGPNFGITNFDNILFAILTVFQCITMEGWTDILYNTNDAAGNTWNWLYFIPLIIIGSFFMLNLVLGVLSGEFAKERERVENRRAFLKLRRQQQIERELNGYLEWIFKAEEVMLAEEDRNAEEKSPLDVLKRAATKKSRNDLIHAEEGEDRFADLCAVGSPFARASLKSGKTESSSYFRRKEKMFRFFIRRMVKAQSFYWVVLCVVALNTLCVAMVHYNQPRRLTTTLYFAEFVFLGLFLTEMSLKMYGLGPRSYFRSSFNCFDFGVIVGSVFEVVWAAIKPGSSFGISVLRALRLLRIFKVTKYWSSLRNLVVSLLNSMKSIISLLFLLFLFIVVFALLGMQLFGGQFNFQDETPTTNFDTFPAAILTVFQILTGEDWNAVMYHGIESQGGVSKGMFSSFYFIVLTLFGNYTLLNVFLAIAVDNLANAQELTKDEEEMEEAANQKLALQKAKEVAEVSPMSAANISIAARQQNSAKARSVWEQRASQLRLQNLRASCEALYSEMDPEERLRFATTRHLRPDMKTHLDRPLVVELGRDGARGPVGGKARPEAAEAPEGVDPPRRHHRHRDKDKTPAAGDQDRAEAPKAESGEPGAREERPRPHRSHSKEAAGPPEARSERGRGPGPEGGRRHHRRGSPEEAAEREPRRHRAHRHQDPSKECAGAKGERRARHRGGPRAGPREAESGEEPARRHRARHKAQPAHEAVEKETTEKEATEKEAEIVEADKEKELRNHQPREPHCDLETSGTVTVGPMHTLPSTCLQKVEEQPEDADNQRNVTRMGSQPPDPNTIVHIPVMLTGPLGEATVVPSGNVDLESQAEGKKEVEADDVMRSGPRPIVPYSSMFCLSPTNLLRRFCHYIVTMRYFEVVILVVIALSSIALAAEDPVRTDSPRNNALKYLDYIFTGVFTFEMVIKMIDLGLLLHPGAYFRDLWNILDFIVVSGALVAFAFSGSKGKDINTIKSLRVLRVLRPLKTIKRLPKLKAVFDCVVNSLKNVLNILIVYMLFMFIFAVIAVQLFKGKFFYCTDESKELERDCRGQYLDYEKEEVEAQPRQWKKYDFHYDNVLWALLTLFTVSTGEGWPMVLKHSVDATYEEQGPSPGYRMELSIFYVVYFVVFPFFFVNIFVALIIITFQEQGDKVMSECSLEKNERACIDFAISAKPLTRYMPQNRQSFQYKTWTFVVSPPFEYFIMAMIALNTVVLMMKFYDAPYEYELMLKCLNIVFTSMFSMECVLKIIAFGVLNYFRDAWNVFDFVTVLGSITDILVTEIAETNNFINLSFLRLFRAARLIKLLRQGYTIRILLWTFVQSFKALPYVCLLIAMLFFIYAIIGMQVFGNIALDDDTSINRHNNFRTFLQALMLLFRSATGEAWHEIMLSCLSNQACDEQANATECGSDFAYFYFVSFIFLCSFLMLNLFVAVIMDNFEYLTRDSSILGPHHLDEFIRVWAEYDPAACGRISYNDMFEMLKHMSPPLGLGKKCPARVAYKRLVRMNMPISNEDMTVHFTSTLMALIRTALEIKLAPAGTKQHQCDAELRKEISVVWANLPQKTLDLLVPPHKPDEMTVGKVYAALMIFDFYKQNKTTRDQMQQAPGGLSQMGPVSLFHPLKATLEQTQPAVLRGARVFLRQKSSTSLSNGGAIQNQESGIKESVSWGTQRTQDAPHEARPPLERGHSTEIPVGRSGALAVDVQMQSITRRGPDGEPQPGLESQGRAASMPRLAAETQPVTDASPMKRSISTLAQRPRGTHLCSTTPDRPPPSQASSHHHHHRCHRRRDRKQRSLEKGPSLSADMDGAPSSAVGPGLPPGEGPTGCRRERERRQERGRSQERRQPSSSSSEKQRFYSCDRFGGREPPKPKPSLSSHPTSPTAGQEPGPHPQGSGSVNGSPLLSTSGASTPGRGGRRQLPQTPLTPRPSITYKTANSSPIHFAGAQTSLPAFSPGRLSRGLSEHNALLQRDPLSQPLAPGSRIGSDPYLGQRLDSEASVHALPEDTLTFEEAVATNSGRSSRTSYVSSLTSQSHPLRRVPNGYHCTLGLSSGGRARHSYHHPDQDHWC
T1 sequence (P54289 25-1103 partner): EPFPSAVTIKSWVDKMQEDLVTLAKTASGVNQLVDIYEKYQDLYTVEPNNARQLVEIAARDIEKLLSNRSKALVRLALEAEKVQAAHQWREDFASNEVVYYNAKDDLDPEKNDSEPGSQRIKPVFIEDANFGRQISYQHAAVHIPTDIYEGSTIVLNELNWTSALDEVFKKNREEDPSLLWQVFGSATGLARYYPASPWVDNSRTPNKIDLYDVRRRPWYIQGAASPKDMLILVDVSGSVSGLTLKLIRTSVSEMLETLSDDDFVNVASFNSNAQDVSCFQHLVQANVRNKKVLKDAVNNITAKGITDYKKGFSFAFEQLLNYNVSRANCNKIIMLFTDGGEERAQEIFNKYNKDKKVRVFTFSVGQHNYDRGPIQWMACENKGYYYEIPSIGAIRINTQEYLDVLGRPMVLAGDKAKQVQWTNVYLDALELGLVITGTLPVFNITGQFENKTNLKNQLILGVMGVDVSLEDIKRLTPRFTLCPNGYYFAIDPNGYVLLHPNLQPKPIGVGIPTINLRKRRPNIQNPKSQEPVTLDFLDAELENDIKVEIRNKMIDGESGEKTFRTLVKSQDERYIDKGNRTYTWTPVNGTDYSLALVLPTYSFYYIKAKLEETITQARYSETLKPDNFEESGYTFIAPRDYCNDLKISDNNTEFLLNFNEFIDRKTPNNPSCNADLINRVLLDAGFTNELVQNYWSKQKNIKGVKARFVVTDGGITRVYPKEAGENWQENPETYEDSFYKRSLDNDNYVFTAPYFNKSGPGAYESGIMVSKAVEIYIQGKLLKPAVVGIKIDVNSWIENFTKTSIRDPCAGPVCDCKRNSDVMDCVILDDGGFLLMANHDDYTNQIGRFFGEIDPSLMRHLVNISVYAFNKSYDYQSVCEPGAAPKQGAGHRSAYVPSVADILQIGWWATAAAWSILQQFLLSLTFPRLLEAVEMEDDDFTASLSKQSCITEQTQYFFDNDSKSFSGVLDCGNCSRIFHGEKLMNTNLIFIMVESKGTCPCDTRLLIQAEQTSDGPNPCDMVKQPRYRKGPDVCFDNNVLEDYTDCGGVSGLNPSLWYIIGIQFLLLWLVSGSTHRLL
T1 sequence (P54284 whole entry partner): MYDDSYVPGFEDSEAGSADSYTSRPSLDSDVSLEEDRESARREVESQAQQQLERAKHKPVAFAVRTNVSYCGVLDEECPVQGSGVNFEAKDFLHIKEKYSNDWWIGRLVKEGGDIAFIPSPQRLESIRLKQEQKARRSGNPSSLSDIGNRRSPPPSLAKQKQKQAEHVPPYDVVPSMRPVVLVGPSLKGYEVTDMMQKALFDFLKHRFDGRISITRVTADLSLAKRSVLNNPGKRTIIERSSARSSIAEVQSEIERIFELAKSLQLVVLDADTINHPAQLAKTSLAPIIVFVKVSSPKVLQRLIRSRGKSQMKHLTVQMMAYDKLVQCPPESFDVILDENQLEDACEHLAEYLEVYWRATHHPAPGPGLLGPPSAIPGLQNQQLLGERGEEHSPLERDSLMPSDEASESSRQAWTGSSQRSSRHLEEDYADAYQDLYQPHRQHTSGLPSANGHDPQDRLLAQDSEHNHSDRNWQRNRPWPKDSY

As for `CC(C)(C)c1cc(C(=O)NC2(C(=O)NCc3ccc(CN4CCOCC4)cc3)CCOCC2)cc(C(C)(C)C)n1` [Compound 24, 2,6-di-tert-butyl-N-(4-(4-(morpholinomethyl)benzylcarbamoyl)tetrahydro-2H-pyran-4-yl)isonicotinamide], the inhibition at 10 µM is 79.2% and the IC50 was determined as 767 nM.

In the case of `COc1c(C(C)(C)C)cc(C(=O)NC2(C(=O)NCc3cccc(C(F)(F)F)c3)CCCCC2)cc1C(C)(C)C` [Compound 33, 3,5-di-tert-butyl-4-methoxy-N-(1-(3-(trifluoromethyl)benzylcarbamoyl)cyclohexyl)benzamide], the inhibition at 10 µM was 81.4%, the inhibition at 30 µM turned out to be 90.5% and the 50% inhibitory concentration (IC50) came out at 37.6 nM.

Turning to `CC(C)(C)c1cc(C(=O)NC2(C(=O)NCc3cccc(C(F)(F)F)c3)CCCC2)cc(C(C)(C)C)c1` [Compound 39, 3,5-di-tert-butyl-N-(1-(3-(trifluoromethyl)benzylcarbamoyl)cyclopentyl)benzamide], the inhibition at 10 µM is 79.6%, the inhibition at 30 µM was determined as 77.9% and the half-maximal inhibitory concentration (IC50) was found to be 513 nM.

As for `COc1ccc(CNC(=O)C2(NC(=O)c3cc(C(C)(C)C)c(OC)c(C(C)(C)C)c3)CCCCC2)cc1` [Compound 31, 3,5-di-tert-butyl-4-methoxy-N-(1-(4-methoxybenzylcarbamoyl)cyclohexyl)benzamide], the inhibition at 10 µM was 87.5%, the inhibition at 30 µM came out at 105% and the IC50 came out at 2.6 nM.

Regarding `CC(C)(C)c1cc(C(=O)NC2(C(=O)N3CCCC3)CCCC2)cc(C(C)(C)C)n1` [Compound 92, 2,6-di-tert-butyl-N-(1-(pyrrolidine-1-carbonyl)cyclopentyl)isonicotinamide], the inhibition at 10 µM stood at 89.5%, the inhibition at 30 µM came to 92.2% and the IC50 worked out at 225 nM.

Consider `CC(C)(C)c1cc(C(=O)NC2(C(=O)N3CCN(Cc4ccccc4)CC3)CCCCC2)cc(C(C)(C)C)n1` [Compound 69, N-(1-(4-benzylpiperazine-1-carbonyl)cyclohexyl)-2,6-di-tert-butylisonicotinamide], for which the inhibition at 10 µM is 88.3%, the inhibition at 30 µM worked out at 95.3% and the IC50 stood at 538 nM.

`COc1c(C(C)(C)C)cc(C(=O)NC2(C(=O)N3CCN(C)CC3)CCCCC2)cc1C(C)(C)C` [Compound 104, 3,5-di-tert-butyl-4-methoxy-N-(1-(4-methylpiperazine-1-carbonyl)cyclohexyl)benzamide]: the IC50 was 1020 nM.

`COc1c(C(C)(C)C)cc(C(=O)NC2(C(=O)N3CCCC3)CCCCC2)cc1C(C)(C)C` [Compound 30, 3,5-di-tert-butyl-4-methoxy-N-(1-(pyrrolidine-1-carbonyl)cyclohexyl)benzamide]: the inhibition at 10 µM was determined as 91.7%, the inhibition at 30 µM was 93.4% and the IC50 is 25.2 nM.

For the compound `COc1c(C(C)(C)C)cc(C(=O)NC2(C(=O)N3CCN(Cc4ccccc4)CC3)CCCCC2)cc1C(C)(C)C` [Compound 83, N-(1-(4-benzylpiperazine-1-carbonyl)cyclohexyl)-3,5-di-tert-butyl-4-methoxybenzamide], the inhibition at 10 µM came to 97.2%, the inhibition at 30 µM is 100% and the half-inhibitory concentration (IC50) amounted to 134 nM.

Consider `COc1ccc(CNC(=O)C2(NC(=O)c3cc(C(C)(C)C)c(OC)c(C(C)(C)C)c3)CCCC2)cc1` [Compound 38, 3,5-di-tert-butyl-4-methoxy-N-(1-(4-methoxybenzylcarbamoyl)cyclopentyl)benzamide], for which the inhibition at 10 µM came to 97.8%, the inhibition at 30 µM was determined as 99% and the IC50 stood at 35.9 nM.

For the compound `CC(C)(C)NC(=O)C(C)(C)c1cc(C(=O)NC2(C(=O)NCc3ccccc3)CCCCC2)cc(C(C)(C)C(=O)NC(C)(C)C)c1` [Compound 63, 2,2′-(5-(1-(benzylcarbamoyl)cyclohexylcarbamoyl)-1,3-phenylene)bis(N-tert-butyl-2-methylpropanamide)], the inhibition at 10 µM stood at 66.4% and the inhibition at 30 µM is 82%.

With `CC(C)(C)c1cc(C(=O)NC2(C(=O)NCc3ccccc3)Cc3ccccc3C2)cc(C(C)(C)C)n1` [Compound 52, N-(2-(benzylcarbamoyl)-2,3-dihydro-1H-inden-2-yl)-2,6-di-tert-butylisonicotinamide], the inhibition at 10 µM stood at 82.2%, the inhibition at 30 µM was 91.3% and the half-inhibitory concentration (IC50) worked out at 893 nM.

As to `CC(C)(C)c1cc(C(=O)NC2(C(=O)NCc3cccc(S(C)(=O)=O)c3)CC2)cc(C(C)(C)C)c1O` [Compound 16, 3,5-di-tert-butyl-4-hydroxy-N-(1-(3-(methylsulfonyl)benzylcarbamoyl)cyclopropyl)benzamide], the inhibition at 10 µM amounted to 89.3% and the inhibition at 30 µM was 93%.

`CN1CCN(Cc2ccc(CNC(=O)C3(NC(=O)c4cc(C(C)(C)C)nc(C(C)(C)C)c4)CCOCC3)cc2)CC1` [Compound 27, 2,6-di-tert-butyl-N-(4-(4-((4-methylpiperazin-1-yl)methyl)benzylcarbamoyl)tetrahydro-2H-pyran-4-yl)isonicotinamide]: the inhibition at 10 µM was determined as 102% and the IC50 is 1040 nM.

In the case of `COc1c(C(C)(C)C)cc(C(=O)NC2(C(=O)NCc3cnc(C)cn3)CCN(C(=O)OC(C)(C)C)CC2)cc1C(C)(C)C` [Compound 22, tert-butyl 4-(3,5-di-tert-butyl-4-methoxybenzamido)-4-((5-methylpyrazin-2-yl)methylcarbamoyl)piperidine-1-carboxylate], the inhibition at 10 µM was determined as 95.1% and the IC50 was found to be 402 nM.

In the case of `COc1c(C(C)(C)C)cc(CC(=O)NC2(C(=O)NCc3ccccc3)CCCCC2)cc1C(C)(C)C` [Compound 17, N-benzyl-1-(2-(3,5-di-tert-butyl-4-methoxyphenyl)acetamido)cyclohexanecarboxamide], the inhibition at 10 µM turned out to be 48.2% and the inhibition at 30 µM was 90.6%.

`COc1c(C(C)(C)C)cc(C(=O)NC2(C(=O)NCc3nccs3)CCCCC2)cc1C(C)(C)C` [Compound 87, 3,5-di-tert-butyl-4-methoxy-N-(1-(thiazol-2-ylmethylcarbamoyl)cyclohexyl)benzamide]: the inhibition at 10 µM turned out to be 102%, the inhibition at 30 µM worked out at 104% and the IC50 was found to be 6.04 nM.

Regarding `CNC(=O)C1(NC(=O)c2cc(C(C)(C)C)nc(C(C)(C)C)c2)CCCCC1` [Compound 101, 2,6-di-tert-butyl-N-(1-(methylcarbamoyl)cyclohexyl)isonicotinamide], the half-maximal inhibitory concentration (IC50) was determined as 105 nM.

Consider `Cc1cc(CNC(=O)C2(NC(=O)c3cc(C(C)(C)C)nc(C(C)(C)C)c3)CCCCC2)nn1C` [Compound 78, 2,6-di-tert-butyl-N-(1-((1,5-dimethyl-1H-pyrazol-3-yl)methylcarbamoyl)cyclohexyl)isonicotinamide], for which the inhibition at 10 µM is 79.5%, the inhibition at 30 µM was found to be 88.6% and the IC50 worked out at 24.5 nM.

As to `CN1CCC(NC(=O)c2cc(C(C)(C)C)nc(C(C)(C)C)c2)(C(=O)NCc2ccccc2)CC1` [Compound 97, N-(4-(benzylcarbamoyl)-1-methylpiperidin-4-yl)-2,6-di-tert-butylisonicotinamide], the inhibition at 10 µM came to 76%, the inhibition at 30 µM came out at 90.6% and the IC50 turned out to be 1070 nM.
